# Measurements as given in patent US10865176B2, “Small molecule modulators of microRNA-34a” (The Chinese University of Hong Kong, priority 2012, dated 2020).
# Test system: HepG2 cells
# Test: MTT cell viability assay, HepG2
# Type: cell-based, human
# Experimental: Cell viability was measured by 3-(4,5-Dimethylthiazol-2-yl)-2,5-diphenyltetrazolium bromide (MTT) assay. 1×10^3 Cells were seeded in triplicate on a 96 well plate and were allowed to grow for indicated time points. At each time point a set of cells were incubated with 0.5 mg/ml MTT diluted in 1×PBS. After 2 to 4 h incubation, the MTT solution was removed. The insoluble MTT was dissolved in DMSO. Absorbance at 570 nm was measured by an ELISA plate reader.
smiles,measurement,setting,value
"COc1cc(O)c(C(=O)/C=C/c2cc(OC)c(OC)cc2OC)c(OC)c1 [Rubone, 2′-Hydroxy-2,4,4′,5,6′-pentamethoxychalcone]",growth inhibitory effect of Rubone after p53 knockdown (MTT),"HepG2, 2 μM siRNAs targeting p53, 10 μM Rubone",significantly reversed by knocking down p53
same,cell growth (MTT),"HepG2, 10 μM",significantly inhibited the growth
